Assay results as given in PMC9030254, “Target Hopping from Protein Kinases to PXR: Identification of Small-Molecule Protein Kinase Inhibitors as Selective Modulators of Pregnane X Receptor from TüKIC Library” (Cells, 2022).

Legend:
Experiment in all cases: PXR target gene mRNA expression in differentiated HepaRG cells (RT-qPCR)
Type in all cases: cell-based
[1] = tested on: ABCB1; details: 48 h
Method: (§1) HepaRG cells (Biopredic, Rennes, France) were cultivated in phenol red-free William’s E medium, supplemented with 10% FBS, 2 mM glutamine, 100 U/mL penicillin, 100 µg/mL streptomycin, 5 µg/mL insulin, and 50 µM hydrocortisone. For gene expression analyses, 1.0 × 10^5 cells were seeded per well of a 12-well plate. After reaching confluence, growth medium was supplemented with 2% DMSO, and cells were further cultivated for 2 weeks for differentiation into hepatocytes, as described previously. Afterward, cells were adapted to induction medium (growth medium with FBS reduced to 2% and 0.2% DMSO) for 48 h. Then chemical treatment was started for another 48 h, with daily medium change.
(§2) Total RNA was prepared from LS174T and HepaRG cells using the NucleoSpin RNA kit (Macherey-Nagel, Düren, Germany). RNA integrity was analyzed by formaldehyde-agarose gel electrophoresis. First strand cDNA was synthesized as described earlier. Relative quantification analyses were conducted with TaqMan RT-PCR utilizing the BioMark HD system and FLEX Six Gene Expression Integrated Fluidic Circuits (Fluidigm, South San Francisco, CA, USA) as described previously. TaqMan gene expression assays were either the commercially available predesigned assays Hs00184500_m1 (ABCB1) and Hs00604506_m1 (CYP3A4) (Thermo Fischer Scientific) or have been described previously: CYP2B6 [31] and 18S rRNA [39]. Data were analyzed as described previously. Gene expression levels were normalized to respective 18S rRNA levels.
(§3) Figure 7 Effects of novel PXR ligands on endogenous PXR target gene expression. […] (B) HepaRG cells were treated with 0.2% DMSO, 10 µM RIF, or 10 µM compound 100 or cotreated with 10 µM RIF and compound 100 for 48 h. mRNA expression was measured as described above.

[2] = tested on: CYP3A4; details: 10 µM, 48 h
Method: as §1, §2, §3

[3] = tested on: CYP2B6; details: 10 µM, 48 h
Method: as §1, §2, §3

O=C(Cc1ccccc1)Nc1ccc(F)c(Nc2ccc3c(c2)CCCCC3=O)c1 [Compound 100]
effect on rifampicin-induced expression of ABCB1 ([1]; 10 µM compound + 10 µM rifampicin): only minor inhibitory effects
expression of ABCB1 mRNA ([1]; 10 µM): induced the expression of ABCB1, CYP2B6, and CYP3A4
expression of CYP3A4 mRNA [2]: induced the expression of ABCB1, CYP2B6, and CYP3A4
expression of CYP2B6 mRNA [3]: induced the expression of ABCB1, CYP2B6, and CYP3A4
